{"source": "patent US7943159B1", "about": "“Female sex pheromone of the dogwood borer (DWB), Synanthedon scitula, and attraction inhibitor (antagonist)” (The United States of America as represented by the …, priority 2006, dated 2011)", "key": {"adult male DWB antenna": {"tested_on": "adult male DWB antenna", "experiment": "Coupled GC-EAD (electroantennographic detection) of synthetic octadecadienyl acetates", "parameters": "species or system Synanthedon scitula", "settings": "for EAD activity in 10 ng of loading: 10 ng loading, male DWB antenna, footnote: relative to E,Z-2,13-octadecadienyl acetate; for EAD activity / electroantennogram response: male DWB antennae, synthetic standards", "source_text": "Identification of peaks: 1, ZZ 3,13-ODDA; 2, EZ 2,13-ODDA; and 3, ZE 3,13-ODDA. Electrophysiological. Recordings and Mass Spectrometry: The coupled gas chromatographic-electroantennographic detection (GC-EAD) system used was as previously described (Zhang, A., and S. Polavarapu, J. Chem. Ecol., 29: 2153-2164 (2003); Zhang, A., and S. Polavarapu, J. Chem. Ecol., 30: 1531-1545 (2004); Zhang, A., et al., J. Chem. Ecol., 23: 231-245 (1997)). A Hewlett Packard (HP) 6890 gas chromatograph equipped with a 60 m×0.25-mm i.d., 0.25-mm film-thickness DB-[…] capillary column (J&W Scientific Inc., Folsom, Calif., 120° C. for 2 min, then programmed to 250° C. at 10° C./min and held for 10 min) or a 60 m×0.25-mm i.d., 0.25-mm film-thickness DB-5 capillary column (J&W Scientific Inc., 100° C. for 2 min, then programmed to 250° C. at 15° C./min and held for 10 min) in the splitless mode with hydrogen as carrier (1.4 ml/min) was used for GC-EAD analysis. Electronic impact (EI) gas chromatography-mass spectrometry (GC-MS) was conducted on a Hewlett-Packard 6890 GC coupled to a HP 5973 Mass Selective Detector using an identical DB-[…] capillary column (120° C. for 2 min, then programmed to 230° C. at 15° C./min and held for 25 min for regular analysis, but with helium as carrier gas. A 70 eV electron beam was employed for sample ionization."}, "[1]": {"tested_on": "male DWB (Synanthedon scitula)", "experiment": "Field trapping tests with lure-baited sticky traps in apple orchards", "format": "in vivo", "method": "Field Trapping Tests: Red natural rubber septa (5 mm, Wheaton, N.J.) loaded with the desired rates of Z,Z-3,13-ODDA and the blends in […] of hexane solution were used for field deployment. The same amount of solvent (hexane) was loaded on the septum for the blank control. After loading, the solvent was allowed to evaporate in a fume hood for 30 min. Lures were then wrapped in aluminum foil, stored in 20 ml plastic vials, and shipped by express carrier on the same day. Upon arrival, the lures were kept in a freezer at −10° C. until deployed. All field tests were conducted in commercial apple fields in WV, VA, and NC using Pherocon 1C or Delta sticky traps (Trécé, Salinas, Calif.). Traps were placed in trees at ˜1.2 m above the ground (Riedi, Fla., et al., Cana. Entomol., 117: 1367-1377 (1985)). At each location, experimental lures were randomized within each of three to five rows (depending on the number of replicates per test) and separated by at least one buffer row, and traps were spaced at a minimum of ˜25 m intervals within a row. Traps were rotated among positions within each row at weekly intervals for the duration of each test. The number of dogwood borer, peachtree borer, lilac borer, and other male Sesiidae moths captured were recorded weekly. In the first comparison trial, the following lures were deployed: the single component (100% Z,Z-3,13 ODDA); the binary blend (Z,Z-3,13-ODDA:E,Z-2,13-ODDA=94:6); a second two-component blend (Z,Z-3,13-ODDA:Z,E-3,13-ODDA=94:6, based on the molar amount of the Z,Z-3,13-octadecadienyl acetate in the composition); the trinary blend (Z,Z-3,13-ODDA:E,Z-2,13-ODDA:Z,E-3,13-ODDA=88:6:6); and control. Next, to evaluate the attractive effect of addition of third component, 0.5, 1, 3, or 10% based on the molar amount of the Z,Z-3,13-octadecadienyl acetate of Z,E-3,13-ODDA were added into the binary blend individually. Similarly, 0.5, 1, 3, or 10% of E,Z-2,13-ODDA were individually added into a blend consisted of Z,Z-3,13-ODDA:Z, E-3,13-ODDA (94:6) to evaluate the effect of E,Z-2,13-ODDA. In another comparison, 0.5, 1, 2, or 3% E,Z-3,13-ODDA was added to the trinary blend. Dose response tests of the trinary and binary blends were deployed in each location, with doses consisting of 10-μg, 100-μg, 300-μg, 1-mg, and 10-mg (trinary blend); and 10-μg, 100-μg, 300-μg, 500-μg, and 1-mg (binary blend), respectively. Caged live virgin females (2-4 days old and 1 female per cage) were deployed in traps to provide a natural source of pheromone for comparison with traps baited with the binary and trinary blends. In a final comparison to determine over what distance DWB can detect the trinary blend, we compared captures in traps baited with the trinary blend deployed within an infested apple orchard, and 50 and […] outside the orchard within a large wood lot habitat.\nStatistics: The data on control traps were omitted in the analysis because of zero trap catches. Unless otherwise specified, data on trap catches from each test were logarithm transformed (log χ+1) to normalize the variance before analysis. Means were compared by one-way analysis of variance (ANOVA) followed by Ryan-Einot-Gabriel-Welsch Range test (SPSS 10.0 for Windows, George and Mallery, 2002) for significance at α=0.05."}, "dogwood borer (DWB)": {"tested_on": "dogwood borer (DWB)", "experiment": "Species-specificity of lures: share of dogwood borer in captures", "format": "in vivo, Synanthedon scitula", "settings": "across all sites; FIG. 10", "method": "Field Trapping Tests: Red natural rubber septa (5 mm, Wheaton, N.J.) loaded with the desired rates of Z,Z-3,13-ODDA and the blends in […] of hexane solution were used for field deployment. The same amount of solvent (hexane) was loaded on the septum for the blank control. After loading, the solvent was allowed to evaporate in a fume hood for 30 min. Lures were then wrapped in aluminum foil, stored in 20 ml plastic vials, and shipped by express carrier on the same day. Upon arrival, the lures were kept in a freezer at −10° C. until deployed. All field tests were conducted in commercial apple fields in WV, VA, and NC using Pherocon 1C or Delta sticky traps (Trécé, Salinas, Calif.). Traps were placed in trees at ˜1.2 m above the ground (Riedi, Fla., et al., Cana. Entomol., 117: 1367-1377 (1985)). At each location, experimental lures were randomized within each of three to five rows (depending on the number of replicates per test) and separated by at least one buffer row, and traps were spaced at a minimum of ˜25 m intervals within a row. Traps were rotated among positions within each row at weekly intervals for the duration of each test. The number of dogwood borer, peachtree borer, lilac borer, and other male Sesiidae moths captured were recorded weekly. […]"}}, "note": "“Also recorded” adds a separate entry of the source."}
{"compound": "CCCC/C=C\\CCCCCCCC/C=C/CCOC(C)=O", "note": "[(E,Z)-3,13-Octadecadienyl acetate, E,Z-3,13-octadecadienyl acetate]", "values": [{"measurement": "EAD activity in 10 ng of loading", "setting": "adult male DWB antenna", "result": "0.30 (±8.7% SD, n = 3) mV"}, {"measurement": "EAD activity / electroantennogram response", "setting": "adult male DWB antenna", "result": "just as strong an electroantennogram response as Z,Z-3,13-ODDA"}, {"measurement": "effect on trap captures of DWB (attraction antagonism)", "setting": "[1]; added to trinary blend, FIG. 5, listed as E,Z-3,13-ODDA", "result": "reduced trap captures of DWB significantly; also recorded: inhibit (antagonize) DWB male response and movement"}, {"measurement": "amount added to trinary blend that significantly inhibited (reduced) trap captures", "setting": "[1]; all locations, FIG. 5, listed as E,Z-3,13-ODDA", "result": "≤ 0.5", "unit": "%"}, {"measurement": "amount added to trinary blend that significantly inhibited (reduced) trap captures", "setting": "[1]; all locations, FIG. 5, listed as E,Z-3 μl 3-ODDA", "result": "0.5-1%"}]}
{"compound": "CCCC/C=C/CCCCCCCC/C=C\\CCOC(C)=O", "note": "[(Z,E)-3,13-Octadecadienyl acetate, Z,E-3,13-octadecadienyl acetate]", "values": [{"measurement": "EAD activity in 10 ng of loading", "setting": "adult male DWB antenna", "result": "0.25 (±1.0% SD, n = 3) mV"}, {"measurement": "effect on attraction of adding the compound to the binary blend", "setting": "[1]; 0.5 to 10% added to binary blend (94:6), FIG. 3, listed as Z,E-3,13-ODDA", "result": "did not cause a significant increase in attraction; also recorded: did not observe a similar response"}]}
{"compound": "CCCC/C=C/CCCCCCCCC/C=C/COC(C)=O", "note": "[(E,E)-2,13-Octadecadienyl acetate, reference compound]", "values": [{"measurement": "EAD activity in 10 ng of loading", "setting": "adult male DWB antenna", "result": "0.012 (±0.21% SD, n = 3) mV"}]}
{"compound": "CCCC/C=C\\CCCCCCCCC/C=C\\COC(C)=O", "note": "[(Z,Z)-2,13-Octadecadienyl acetate, reference compound]", "values": [{"measurement": "EAD activity in 10 ng of loading", "setting": "adult male DWB antenna", "result": "0.029 (±0.79% SD, n = 3) mV"}]}
{"compound": "CCCC/C=C/CCCCCCCCC/C=C\\COC(C)=O", "note": "[(Z,E)-2,13-Octadecadienyl acetate, reference compound]", "values": [{"measurement": "EAD activity in 10 ng of loading", "setting": "adult male DWB antenna", "result": "0.030 (±0.10% SD, n = 3) mV"}]}
{"compound": "CCCC/C=C\\CCCCCCCCC/C=C/COC(C)=O", "note": "[(E,Z)-2,13-Octadecadienyl acetate, E,Z-2,13-octadecadienyl acetate]", "values": [{"measurement": "EAD activity in 10 ng of loading", "setting": "adult male DWB antenna", "result": "0.13 (±1.2% SD, n = 3) mV"}, {"measurement": "EAD activity / electroantennogram response", "setting": "adult male DWB antenna", "result": "confirmed by synthetic standards"}, {"measurement": "effect on attraction of adding the compound to Z,Z-3,13-ODDA:Z,E-3,13-ODDA (94:6) blend", "setting": "[1]; 0.5 to 10% added, FIG. 4", "result": "significantly increased"}, {"measurement": "amount added to 94:6 (Z,Z-3,13-ODDA:Z,E-3,13-ODDA) blend at which captures increased significantly", "setting": "[1]; all locations, FIG. 4", "result": "≤ 1", "unit": "%"}]}
{"compound": "CCCC/C=C\\CCCCCCCC/C=C\\CCOC(C)=O", "note": "[(Z,Z)-3,13-Octadecadienyl acetate, Z,Z-3,13-octadecadienyl acetate]", "values": [{"measurement": "EAD activity in 10 ng of loading", "setting": "adult male DWB antenna", "result": "0.30 (±9.5% SD, n = 3) mV"}, {"measurement": "EAD activity / electroantennogram response", "setting": "adult male DWB antenna", "result": "confirmed by synthetic standards"}, {"measurement": "percentage of captures that were male dogwood borers", "setting": "dogwood borer (DWB)", "result": "92-99.6%"}, {"measurement": "attraction of male DWB (trap captures), blend comparison", "setting": "[1]; septa containing 1-mg, NC, VA, WV, FIG. 2, listed as Z,Z-3,13-ODDA", "result": "surprisingly attractive; also recorded: reliably attract male DWB"}]}
{"compound": "CCCC/C=C/CCCCCCCC/C=C/CCOC(C)=O", "note": "[(E,E)-3,13-Octadecadienyl acetate, E,E-3,13-octadecadienyl acetate, reference compound]", "values": [{"measurement": "EAD activity in 10 ng of loading", "setting": "adult male DWB antenna", "result": "0.12 (±3.5% SD, n = 3) mV"}]}
